24 compounds from patent US6656956B2, “Benzimidazole derivatives, processes for preparing them and their use as pharmaceutical compositions” (Boehringer Ingelheim Pharma KG, priority 2001, dated 2003) can be followed below.

Counter-ions that a name gives are not always drawn.

T1 sequence (Q15661 31-275): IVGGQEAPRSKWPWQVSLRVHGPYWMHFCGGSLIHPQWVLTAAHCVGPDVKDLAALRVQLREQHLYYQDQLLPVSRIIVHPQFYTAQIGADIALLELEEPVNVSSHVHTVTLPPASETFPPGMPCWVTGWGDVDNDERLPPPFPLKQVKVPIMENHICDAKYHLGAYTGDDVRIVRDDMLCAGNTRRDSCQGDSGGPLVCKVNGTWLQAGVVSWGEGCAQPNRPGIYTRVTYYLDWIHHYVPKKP

This experiment has as its target T1, rh beta tryptase (Homo sapiens, UniProt Q15661).
T1 construct: purchased Promega
In words: tryptase inhibition in vitro test (cleavage of N-p-tosyl-Gly-Pro-Lys-para-nitroaniline, p-nitroaniline measured at 405 nm). The experiment is classed as biochemical. Particulars: rh beta tryptase 0.91 U/ml, substrate 0.6 mM, Tris HCl buffer with calcium and heparin, pH 7.4, 37° C., 5 minutes incubation; read-out: Tryptase-inhibiting activity. Here is the method: The compounds according to the invention are characterised by their tryptase-inhibiting activity. This ability to inhibit tryptase was investigated using the test described below.
The measurement is carried out in Tris HCl buffer (100 mM), which additionally contains calcium (5 mM) and heparin ([…]), at pH 7.4. The standard used is rh beta tryptase which may be obtained commercially from Promega, for example. The substrate used is N-p-tosyl-Gly-Pro-Lys-para-nitroaniline in a concentration of 0.6 mM. The substrate is digested with tryptase to form p-nitroaniline which can be measured at 405 nm. Usually, an incubation period of 5 minutes and an incubation temperature of 37° C. are chosen. The enzyme activity used is 0.91 U/ml. The measurements are carried out in an Autoanalyser (Cobas Bio) made by Hofmann LaRoche. The potential inhibitory substances are used in concentrations of 10 μM in the screening, the inhibition of the tryptase being given in percent. The IC50 is determined at over 70% inhibition (concentration at which 50% of the enzyme activity is inhibited). After 5 minutes' pre-incubation of the potential inhibitory substances, the substrate is added to start the reaction, the formation of p-nitroaniline being taken as a measurement of the enzyme activity after 5 minutes, after testing the linearity.
Take `Cn1c(CCc2ccc(C(=N)N)cc2)nc2cc(N(Cc3cccc(N)c3)C(=O)CN3CCC(Nc4ccccn4)CC3)ccc21` [Example 55, N-{2-[2-(4-Amidinophenyl)-ethyl]-1-methyl-benzimidazol-5-yl}-N-[3-aminophenyl-methyl]-2-[4-(2-pyridylamino)-piperid-1-yl]-acetamide, dihydrochloride]: the IC50 was in the range of 0.004 to 0.03 µM.
Next, `Cn1c(CCc2ccc(C(=N)N)cc2)nc2cc(N(Cc3cccc4ccccc34)C(=O)NCc3ccccc3)ccc21` [Example 5, N-{2-[2-(4-Amidinophenyl)-ethyl]-1-methyl-benzimidazol-5-yl}-N-(naphth-1-ylmethyl)-N′-benzyl-urea, Hydrochloride]: 0.031 to 1 µM; `Cn1c(CCc2ccc(C(=N)N)cc2)nc2cc(N(Cc3cccc4ccccc34)C(=O)Nc3cccc4ccccc34)ccc21` [Example 75, N-{2-[2-(4-Amidinophenyl)-ethyl]-1-methyl-benzimidazol-5-yl}-N-[naphth-1-ylmethyl]-N′-(1-naphthyl)-urea, hydrochloride]: 0.004 to 0.03 µM; `Cn1c(CCc2ccc(C(=N)N)cc2)nc2cc(N(Cc3cccc4ccccc34)C(=O)CN3CCC(N)CC3)ccc21` [Example 15, N-{2-[2-(4-Amidinophenyl)-ethyl]-1-methyl-benzimidazol-5-yl}-N-[naphth-1-ylmethyl]-2-[4-amino-piperid-1-yl]-acetamide, trihydrochloride]: 0.004 to 0.03 µM.
To `Cn1c(CCc2ccc(C(=N)N)cc2)nc2cc(N(Cc3cccc4ccccc34)C(=O)CN3CCC(Nc4cccc(Cl)c4)CC3)ccc21` [Example 11, N-{2-[2-(4-Amidinophenyl)-ethyl]-1-methyl-benzimidazol-5-yl}-N-[naphth-1-ylmethyl]-2-[4-(3-chlorophenylamino)-piperid-1-yl]-acetamide, dihydrochloride] belongs 0.0005 to 0.003 µM; to `CN(C)CCCN(C)C(=O)Nc1ccc2c(c1)nc(CCc1ccc(C(=N)N)cc1)n2C` [Example 81, N-{2-[2-(4-Amidinophenyl)-ethyl]-1-methyl-benzimidazol-5-yl}-N′-methyl-N′-(3-dimethylaminopropyl)-urea, hydrochloride], 0.031 to 1 µM; to `CN(C)CCCN(C)C(=O)N(Cc1cccc2ccccc12)c1ccc2c(c1)nc(CCc1ccc(C(=N)N)cc1)n2C` [Example 78, N-{2-[2-(4-Amidinophenyl)-ethyl]-1-methyl-benzimidazol-5-yl}-N-[naphth-1-ylmethyl]-N′-methyl-N′-(3-dimethylamino-propyl)-urea, hydrochloride], 0.031 to 1 µM.
To `Cn1c(CCc2ccc(C(=N)N)cc2)nc2cc(N(Cc3cccc4ccccc34)C(=O)CN3CCC(Oc4ccccn4)CC3)ccc21` [Example 16, N-{2-[2-(4-Amidinophenyl)-ethyl]-1-methyl-benzimidazol-5-yl}-N-[naphth-1-ylmethyl]-2-[4-(2-pyridinoxy)-piperid-1-yl]-acetamide, dihydrochloride] belongs 0.004 to 0.03 µM; to `CN(C)c1ccc(CN(C(=O)CN2CCC(Nc3ccccn3)CC2)c2ccc3c(c2)nc(CCc2ccc(C(=N)N)cc2)n3C)c2ccccc12` [Example 51, N-{2-[2-(4-Amidinophenyl)-ethyl]-1-methyl-benzimidazol-5-yl}-N-[4-dimethylamino-naphth-1-ylmethyl]-2-[4-(2-pyridylamino)-piperid-1-yl]-acetamide, dihydrochloride], 0.004 to 0.03 µM; to `Cn1c(CCc2ccc(C(=N)N)cc2)nc2cc(N(Cc3cccc4ccccc34)C(=O)CN3CCC(Cc4ccccc4)CC3)ccc21` [Example 9, N-{2-[2-(4-Amidinophenyl)-ethyl]-1-methyl-benzimidazol-5-yl}-N-[naphth-1-ylmethyl]-2-[4-(benzyl)-piperid-1-yl]-acetamide, dihydrochloride], 0.004 to 0.03 µM.
Take “N-{2-[2-(4-Amidinophenyl)-ethyl]-1-methyl-benzimidazol-5- yl}-N-[naphth-1-ylmethyl]-N′-[4-(2-naphthylmethylamino)]- urea, hydrochloride [Example 80]”: the IC50 was in the range of 0.031 to 1 µM.
With `Cn1c(CCc2ccc(C(=N)N)cc2)nc2cc(N(Cc3cccc4ccccc34)C(=O)CN3CCC(Nc4ccncc4)CC3)ccc21` [Example 27, N-{2-[2-(4-Amidinophenyl)-ethyl]-1-methyl-benzimidazol-5-yl}-N-[naphth-1-ylmethyl]-2-[4-(4-pyridylamino)-piperid-1-yl]-acetamide, dihydrochloride], the IC50 lay in the range of 0.004 to 0.03 µM.
To `Cn1c(CCc2ccc(C(=N)N)cc2)nc2cc(N(Cc3cccc4ccccc34)C(=O)CN3CCC(Nc4ccccc4Cl)CC3)ccc21` [Example 12, N-{2-[2-(4-Amidinophenyl)-ethyl]-1-methyl-benzimidazol-5-yl}-N-[naphth-1-ylmethyl]-2-[4-(2-chlorophenylamino)-piperid-1-yl]-acetamide, dihydrochloride] belongs 0.0005 to 0.003 µM; to `Cn1c(CCc2ccc(C(=N)N)cc2)nc2cc(N(Cc3ccccc3)C(=O)CN3CCC(Nc4ccccc4Cl)CC3)ccc21` [Example 58, N-{2-[2-(4-Amidinophenyl)-ethyl]-1-methyl-benzimidazol-5-yl}-N-benzyl-2-[4-(2-chlorophenylamino)-piperid-1-yl]-acetamide, dihydrochloride], 0.0005 to 0.003 µM; to `CN(C)c1ccc(NC2CCN(CC(=O)N(Cc3cccc4ccccc34)c3ccc4c(c3)nc(CCc3ccc(C(=N)N)cc3)n4C)CC2)cc1` [Example 13, N-{2-[2-(4-Amidinophenyl)-ethyl]-1-methyl-benzimidazol-5-yl}-N-[naphth-1-ylmethyl]-2-[4-(4-dimethylaminophenyl-amino)-piperid-1-yl]-acetamide, trihydrochloride], 0.004 to 0.03 µM.
Turning to `Cn1c(CCc2ccc(C(=N)N)cc2)nc2cc(N(Cc3cccc([N+](=O)[O-])c3)C(=O)CN3CCC(Nc4ccccn4)CC3)ccc21` [Example 50, N-{2-[2-(4-Amidinophenyl)-ethyl]-1-methyl-benzimidazol-5-yl}-N-[3-nitrophenylmethyl]-2-[4-(2-pyridylamino)-piperid-1-yl]-acetamide, dihydrochloride], the IC50 was 0.004 to 0.03 µM.
To `CN(C(=O)CN1CCC(Nc2ccc(F)cc2Cl)CC1)c1ccc2c(c1)nc(CCc1ccc(C(=N)N)cc1)n2C` [Example 33, N-{2-[2-(4-Amidinophenyl)-ethyl]-1-methyl-benzimidazol-5-yl}-N-methyl-2-[4-(2-chloro-4-fluorophenylamino)-piperid-1-yl]-acetamide, dihydrochloride] belongs 0.0005 to 0.003 µM; to `CN(CCC(=O)O)C1CCN(CC(=O)N(Cc2cccc3ccccc23)c2ccc3c(c2)nc(CCc2ccc(C(=N)N)cc2)n3C)CC1` [Example 25, N-{2-[2-(4-Amidinophenyl)-ethyl]-1-methyl-benzimidazol-5-yl}-N-[naphth-1-ylmethyl]-2-[4-(N-methyl-N-propionic acid)-piperid-1-yl]-acetamide, diacetate], 0.031 to 1 µM.
To `CN(C(=O)CN1CCC(Nc2ccc(F)cc2Cl)CC1)c1ccc2c(c1)nc(CCc1ccc(CN)cc1)n2C` [Example 84, Ditrifluoroacetate] belongs 0.004 to 0.03 µM.
To `CN(C(=O)CN1CCC(Nc2ccc(C(C)(C)C)cc2Cl)CC1)c1ccc2c(c1)nc(CCc1ccc(C(=N)N)cc1)n2C` [Example 69, N-{2-[2-(4-Amidinophenyl)-ethyl]-1-methyl-benzimidazol-5-yl}-N-methyl-2-[4-(2-chloro-4-tert.butylamino)-piperid-1-yl]-acetamide, dihydrochloride] belongs 0.031 to 1 µM; to `CN(C(=O)CN1CCC(Nc2ccc(Cl)cc2Br)CC1)c1ccc2c(c1)nc(CCc1ccc(C(=N)N)cc1)n2C` [Example 65, N-{2-[2-(4-Amidinophenyl)-ethyl]-1-methyl-benzimidazol-5-yl}-N-methyl-2-[4-(2-bromo-4-chloroamino)-piperid-1-yl]-acetamide, dihydrochloride], 0.0005 to 0.003 µM.
Turning to `Cn1c(CCc2ccc(C(=N)N)cc2)nc2cc(N(Cc3cccc4ccccc34)C(=O)CN3CCC(Nc4ccccn4)CC3)ccc21` [Example 6, N-{2-[2-(4-Amidinophenyl)-ethyl]-1-methyl-benzimidazol-5-yl}-N-[naphth-1-ylmethyl]-2-[4-(2-pyridylamino-piperid-1-yl]-acetamide, dihydrochloride], the IC50 was in the range of 0.0005 to 0.003 µM.
To `Cn1c(CCc2ccc(C(=N)N)cc2)nc2cc(N(Cc3ccc(C(C)(C)C)cc3)C(=O)CN3CCC(Nc4ccccn4)CC3)ccc21` [Example 3, N-{2-[2-(4-Amidinophenyl)-ethyl]-1-methyl-benzimidazol-5-yl}-N-(4-tert-butylphenylmethyl)-2-[4-(2-pyridylamino)-piperid-1-yl]-acetamide, Dihydrochloride] belongs 0.004 to 0.03 µM; to `Cn1c(CCc2ccc(C(=N)N)cc2)nc2cc(N(Cc3cccc4ccccc34)C(=O)NC3CCC(Nc4ccccn4)CC3)ccc21` (stereo not drawn) [Example 76, N-{2-[2-(4-Amidinophenyl)-ethyl]-1-methyl-benzimidazol-5-yl}-N-[naphth-1-ylmethyl]-N′-[4-(2-pyridyl)-amino-cyclohexyl)-urea, hydrochloride], 0.031 to 1 µM.
